# Patent US8148347B2, “Inhibition of interaction of PSD93 and PSDS95 with nNOS and NMDA receptors” (The Johns Hopkins University, priority 2000, dated 2012)
# Entries after “also recorded” stand apart in the source; their conditions may differ.
# Tests used:
# PSD-95/nNOS [1] = assay: yeast two-hybrid growth in −LTH medium, pGAD424-PSD-95 and pGBT9-nNOS; type: cell-based
# Description: (§1) We utilized the yeast two-hybrid system to investigate the effects of halothane on protein interactions within the NMDA receptor signaling complex. The PDZ domain of nNOS or the C-terminus of NMDA receptor subunit 2B (NR2B) was fused in frame with the GAL4 DNA-binding domain in a yeast vector, pGBT9. The PDZ domain of PSD95 or PSD-93 was fused in frame with the GAL4 activation domain in another yeast vector, pGAD424. Both yeast vectors were co-transformed into the Y190 yeast strain, which was then grown in the absence or presence of halothane at clinically relevant concentrations. Protein-protein interactions were confirmed by both yeast growth on −Leu/−Trp/−His (−LTH) medium and lacz expression. To confirm the yeast two-hybrid results, the GST fusion protein binding assay was performed. The GST-fusion proteins, consisting of the second PDZ domain of PSD-95 or PSD-93, were expressed in bacterial BL21 cells and purified using glutathione-coupled agarose. After preincubation with or without different concentrations of halothane, GST-PSD-95 or GST-PSD-93 was incubated with membrane proteins from rat hippocampus at room temperature for 1 h. After extensive washing, the bound proteins were eluted by boiling in 1×SDS-PAGE sample buffer and detected by immunoblotting.
# [2] = system: PSD-95/NMDA receptor subunit 2B (NR2B); assay: yeast two-hybrid growth in −LTH medium, pGAD424-PSD-95 and pGBT9-2B; type: cell-based
# Description: as §1
# PSD-93/nNOS [3] = assay: yeast two-hybrid growth in −LTH medium, pGAD424-PSD-93 and pGBT9-nNOS; type: cell-based
# Description: as §1
# [4] = system: PSD-93/NMDA receptor subunit 2B (NR2B); assay: yeast two-hybrid growth in −LTH medium, pGAD424-PSD-93 and pGBT9-2B; type: cell-based
# Description: as §1
# Y190 yeast strain = assay: yeast growth in −LT media (cytotoxicity control); type: cell-based; conditions: high halothane concentration (3.6%)
# Description: Under normal conditions, PSD-95 interacts with nNOS, resulting in good growth of the yeast carrying pGAD424-PSD-95 and pGBT9-nNOS in −LTH medium. […] Rather, the failure of yeast to grow in −LTH media in the presence of halothane must be due to disruption of protein-protein interactions by halothane. […] These findings confirm the yeast two-hybrid results.
# as §1, with “The GST-fusion proteins, consisting of the second PDZ domain of PSD-95 or PSD-93, were expressed in bacterial BL21 cells and purified using glutathione-coupled agarose. After preincubation with or without different concentrations of halothane, GST-PSD-95 or GST-PSD-93 was incubated with membrane proteins from rat hippocampus at room temperature for 1 h.” left out
# PSD-95/NMDA receptor = biological target: T1, PSD-95/NMDA receptor (Rattus norvegicus, UniProt P31016); assay: GST fusion protein binding assay, GST-PSD-95 and NMDA receptors; conditions: preincubation with different concentrations of halothane
# T1 construct: The GST-fusion proteins, consisting of the second PDZ domain of PSD-95 or PSD-93; made in house; host or cells: bacterial BL21 cells (GST fusion); partner from rat hippocampal membranes
# T1 sequence (P31016 160-246 limits assumed): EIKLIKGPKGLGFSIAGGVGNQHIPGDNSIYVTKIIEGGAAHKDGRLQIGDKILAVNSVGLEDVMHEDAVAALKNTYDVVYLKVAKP
# Description: as §1
# PSD-95/nNOS [5] = biological target: T2, PSD-95/nNOS (Rattus norvegicus, UniProt P31016); assay: GST fusion protein binding assay, GST-PSD-95 and nNOS; conditions: preincubation with different concentrations of halothane
# T2 construct: The GST-fusion proteins, consisting of the second PDZ domain of PSD-95 or PSD-93; made in house; host or cells: bacterial BL21 cells (GST fusion); partner from rat hippocampal membranes
# T2 sequence (P31016 160-246 limits assumed): as above
# Description: as §1
# PSD-93/NMDA receptor = assay: GST fusion protein binding assay, GST-PSD-93 and NMDA receptors; design: species or system rat; conditions: preincubation with different concentrations of halothane
# Description: as §1, with “Protein-protein interactions were confirmed by both yeast growth on −Leu/−Trp/−His (−LTH) medium and lacz expression.” left out
# PSD-93/nNOS [6] = assay: GST fusion protein binding assay, GST-PSD-93 and nNOS; design: species or system rat; conditions: preincubation with different concentrations of halothane
# Description: as §1
structure (smiles),measurement,setting,value
FC(F)(F)C(Cl)Br (centres unmarked) [halothane],growth of the yeast in −LTH media,PSD-95/nNOS [1]; dose dependence,dose-dependently inhibited
same,yeast growth in −LTH media,PSD-95/nNOS [1]; high concentration (1.3%),completely inhibited yeast growth
same,growth of yeast clones in −LTH media,PSD-95/nNOS [1]; low halothane concentrations (0.4%-0.7%),slowed the growth
same,growth of the yeast in −LTH media,[2],A similar phenomenon was observed
same,growth of the yeast in −LTH media,PSD-93/nNOS [3],inhibited by halothane in a similar way
same,growth of the yeast in −LTH media,[4],inhibited by halothane in a similar way
same,yeast growth in −LT media,Y190 yeast strain,growth did not differ from yeast grown without halothane
same,binding of GST-fusion PSD-95 to rat brain NMDA receptors,PSD-95/NMDA receptor,blocks; also recorded: dose-dependently inhibited
same,binding of GST-fusion PSD-95 to nNOS,PSD-95/nNOS [5],blocks; also recorded: dose-dependently inhibited
same,binding of GST-fusion PSD-93 to rat brain NMDA receptors,PSD-93/NMDA receptor,blocks; also recorded: dose-dependently inhibited
same,binding of GST-fusion PSD-93 to nNOS,PSD-93/nNOS [6],blocks; also recorded: dose-dependently inhibited
